According to patent EP0103895A2, “Novel hydroxylamine derivatives, production and use thereof” (MEIJI SEIKA KABUSHIKI KAISHA, priority 1982, dated 1984):
“And” between values parts separate entries of the source, which are not always exact repeats. Equal entries are not always repeated. Where two headings read alike, the source gives them in different places.

Assays:
[1] = system: canine hookworm (Ancylostoma caninum); test: Anthelmintic test in naturally infected dogs with mixed infections, E.P.G. on 7th day: canine hookworm (Test Examples A3, B3, C3, D3); format: in vivo; conditions: dogs, 30 mg/Kg orally once, one value per dog
Description: (§1) Three dogs with mixed infections by canine whipworm (Trichuris vulpis), canine hookworm (Ancylostoma caninum) and canine roundworm (Toxocara canis) (naturally infected dogs) were employed in a group of two and a group of one.
(§2) The compound provided for the test was Compound No.Al, and 20 mg/Kg thereof was placed in a gelatin capsule per 1 Kg of body weight, and administered orally to the two dogs. As control, only a gelatin capsule was administered orally to the one dog.
(§3) Before administration and on the 7th day after administration, fecal matter testing was conducted to calculate the E.P.G., and the anthelmintic effect was judged by the changing of the E.P.G. to negative.
(§4) As control, only gelatin capsules were administered orally to the one dog.
(§5) The same method as in Test Example A3, but the compound provided for the test was Compound No. Cl. 30 mg/Kg of this compound was placed in a gelatin capsule per 1 Kg of body weight and administered orally to the two dogs. As control, only gelatin capsules were administered orally to the one dog.

[2] = system: canine filaria; Dirofilaria immitis; test: Test of anthelmintic effect against canine filaria in naturally infected dogs, subcutaneous injection, microfilaria in blood and adult filaria at autopsy (Test Examples A10, B10, C10, D10); format: in vivo; conditions: for inhibition in vivo at 30 mg/kg: Dirofilaria immitis, sc, 240 h
[3] = system: fowl roundworm (Ascaridia galli); test: Anthelmintic test in chickens artificially infected with fowl roundworm, single oral dose in gelatin capsule, worm bodies counted within 48 hours (Test Examples A1, B1, C1, D1); format: in vivo; conditions: Ascaridia galli, po, 48 h, chickens, one value per chicken (No.1-3), read-out: Anthelmintic effect after 48 hours
Method in brief: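 Anthelmintic percentage derived from counts of worms passed within 48 h plus worms left in the intestine after killing at 48 h. Infection confirmed by fecal examination in three-bird groups; compound given orally once in gelatin capsules at 10/20 (A1, B1), 30/50 (C1) or 15/30 (D1) mg/kg.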

[4] = system: fowl roundworm (As. galli); test: Anthelmintic test in chickens artificially infected with fowl roundworm, compound added to feed, E.P.G. and worm count up to 21st day (Test Examples A2, B2, C2, D2); format: in vivo, Ascaridia galli; conditions: Ascaridia galli, po, 504 h, chickens, worm count on 21st day, one value per chicken, read-out: Anthelmintic effect
[5] = system: canine roundworm (Toxocara canis); test: Anthelmintic test in naturally infected dogs with mixed infections, E.P.G. on 7th day: canine roundworm (Test Examples A3, B3, C3, D3); format: in vivo; conditions: dogs, 30 mg/Kg orally once, one value per dog
Description: as §1, §2, §3, §4, §5

[6] = system: Liver fluke; Fasciola hepatica (F. hepatica); test: Test of anthelmintic effect against rat infected experimentally with liver fluke (Test Examples A11, B11, C11, D11); format: in vivo

C=CCN(OC)C(C)=O [Compound B1, N-allyl-N-acetyl-O-methylhydroxylamine]
Change of E.P.G. Before administration ([1]; baseline, 30 mg/kg): 4,500 E.P.G. and 8,700 E.P.G. | Change of E.P.G. 7th day [1]: 0 E.P.G. | inhibition in vivo at 30 mg/kg ([2]; dog, 30 mg/Kg x 3, subcutaneous injection, read-out: Effect on adult filaria: Percent of worms killed): 58% | inhibition in vivo at 30 mg/kg ([2]; dogs, administration of 30 mg/Kg repeated three times, given as about 50% or more, read-out: anthelmintic effect against adult filaria): ≥ 50% | Number of microfilaria/20 µl on 10th day after the last administration ([2]; dog, 30 mg/Kg x 3, subcutaneous injection, suspension in 1% Tween 80): 0 /20 µl | Effect on adult filaria: Number of worms killed/ Total parasite ([2]; dog, 30 mg/Kg x 3, subcutaneous injection, 30 mg/kg): 8/15 and 12/21 | anthelmintic effect against microfilaria (mf) ([2]; dogs, administration of 30 mg/Kg repeated three times): marked anthelmintic effect | inhibition in vivo at 30 mg/kg ([3]; 30 mg/Kg orally in gelatin capsule): 100% | inhibition in vivo at 50 mg/kg ([3]; 50 mg/Kg orally in gelatin capsule): 100% | inhibition in vivo at 20 ppm ([4]; 20 ppm added to feed): 80 to 90% | inhibition in vivo at 50 ppm ([4]; 50 ppm added to feed): 100% | Change of E.P.G. Before administration ([5]; baseline, 30 mg/kg): 6,100 E.P.G. and 3,200 E.P.G. | Change of E.P.G. 7th day [5]: 0 E.P.G. | Condition of fluke body ([6]; rat, 50 mg/Kg x 5): dead | Presence or absence of fluke egg in fecal matter On 21st day after the last administration ([6]; rat, 50 mg/Kg x 5): - | anthelmintic effect ([6]; rats, five administrations in a dose of 50 mg/Kg each): marked antihelmintic effect
